In patent US7576222B2, “Alkynyl-containing tryptophan derivative inhibitors of TACE/matrix metalloproteinase” (priority 2004, dated 2009):
Where two headings read alike, the source gives them in different places.

Legend:
[1] = biological target: T1, recombinant human catalytic domain of MMP-13 (Homo sapiens, UniProt P45452); assay: biochemical
T1 construct: catalytic domain of MMP-13 (165 amino acids, residues 104-268, 19 kDa)
Description: (§1) A continuous assay was used in which the substrate is a synthetic peptide containing a fluorescent group (7-methoxycoumarin; Mca) that is quenched by energy transfer to a 2,4-dinitrophenyl group. See Knight, C. G. et al., FEBS Lett. (1992) 296: 263-266, incorporated herein by reference in its entirety. […] See Zhang, Y et al., Journal of Pharmacology and Experimental Therapeutics (JPET) (2004) 309:348-355, incorporated by reference in its entirety. The substrate used was Mca-PQGL-(3-[2,4-dinitrophenyl]-L-2,3-diaminopropionyl)-AR-OH (denoted as Wammp-5, custom synthesized by AnaSpec, Inc., San Jose, Calif.). The assay buffer consisted of 50 mM Hepes (pH 7.4), 100 mM NaCl, 5 mM CaCl2, and 0.005% Brij-35. Each well of black polystyrene 96-well plates contained a 200 μl reaction mixture consisting of assay buffer, purified MMP (final concentration of 25 ng/ml, prepared by diluting with the assay buffer), and varied concentrations of inhibitor (prepared by serially diluting a given inhibitor in DMSO in 96-well polypropylene plate). The plates were then incubated at 30° C. for 15 minutes. The enzymatic reactions were initiated by adding the substrate to a final concentration of 20 μM, and mixing 10 times with a pipette. The final DMSO concentration in the assay was 6.0%. The initial rate of the cleavage reaction was determined at 30° C. with a fluorescence plate reader (excitation filter of 330 nm and emission filter of 395 nm) immediately after substrate addition.
(§2) Plots of the inhibitor concentration versus the percent inhibition were fit to the following equation: y=(a−d)/[1+(x/c)^b]+d, a general sigmoidal curve with Hill slope, a to d. x is the inhibitor concentration under test. “y” is the percent inhibition. “a” is the limiting response as x approaches zero. As x increases without bound, y tends toward its limit d. “c” is the inflection point (IC50) for the curve. That is, y is halfway between the lower and upper asymptotes when x=c. “b” is the slope factor or Hill coefficient.
In-Vitro Fluorescence Assay of MMP-13 Activity
See Zhang, Y et al., Journal of Pharmacology and Experimental Therapeutics (JPET) (2004) 309:348-355, incorporated by reference in its entirety.

[2] = biological target: T2, catalytic domain of the recombinant TACE protein (Homo sapiens, UniProt P78536); assay: TACE FRET assay using TACE cat; format: biochemical
T2 construct: The catalytic domain of the recombinant TACE protein was expressed and purified; made in house
T2 sequence (P78536 223-474 limits assumed): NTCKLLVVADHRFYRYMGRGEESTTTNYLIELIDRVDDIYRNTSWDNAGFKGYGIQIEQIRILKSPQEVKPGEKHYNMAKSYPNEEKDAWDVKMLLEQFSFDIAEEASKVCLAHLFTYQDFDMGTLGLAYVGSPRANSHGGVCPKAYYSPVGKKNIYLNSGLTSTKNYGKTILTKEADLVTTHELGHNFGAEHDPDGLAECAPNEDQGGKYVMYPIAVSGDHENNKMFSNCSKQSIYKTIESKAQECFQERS
In short: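 Enzyme (1 ug/ml) pretreated with inhibitor for 10 min at room temperature in 50 mM Tris-HCl pH 7.4, 25 mM NaCl, 4% glycerol, 0.005% Brij 35, then started with FRET peptide Abz-[sequence]-Dpa (2 mM stock). Initial rate taken from fluorescence slope; IC50 fitted with floated Hill slope and background.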

recombinant human MMP-2 = biological target: T3, recombinant human MMP-2 (Homo sapiens, UniProt P08253); assay: In-vitro fluorescence (FRET) assay of MMP-2 activity; format: biochemical
T3 construct: purchased Oncogene Research Products (Calbiochem) PF023
T3 sequence (P08253 110-660): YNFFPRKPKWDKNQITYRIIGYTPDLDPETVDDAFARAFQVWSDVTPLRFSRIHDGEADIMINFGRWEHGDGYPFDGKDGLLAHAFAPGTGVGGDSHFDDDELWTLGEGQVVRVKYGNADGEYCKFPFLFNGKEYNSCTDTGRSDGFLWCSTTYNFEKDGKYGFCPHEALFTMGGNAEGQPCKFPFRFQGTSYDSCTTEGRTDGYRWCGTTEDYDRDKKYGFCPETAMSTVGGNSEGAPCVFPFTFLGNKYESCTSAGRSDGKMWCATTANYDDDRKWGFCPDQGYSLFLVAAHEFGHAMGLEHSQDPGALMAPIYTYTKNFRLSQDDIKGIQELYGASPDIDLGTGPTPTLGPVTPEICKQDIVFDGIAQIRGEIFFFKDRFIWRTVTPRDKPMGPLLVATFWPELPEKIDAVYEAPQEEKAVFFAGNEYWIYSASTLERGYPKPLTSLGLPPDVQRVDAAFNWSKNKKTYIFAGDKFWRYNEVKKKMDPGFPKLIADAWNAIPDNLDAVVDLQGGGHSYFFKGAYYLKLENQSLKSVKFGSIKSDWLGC
Description: as §1, §2
In-Vitro Fluorescence Assay of MMP-2 Activity

[3] = biological target: T4, recombinant human catalytic domain of MMP-1 (Homo sapiens, UniProt P03956); assay: In-vitro fluorescence (FRET) assay of MMP-1 activity; format: biochemical
T4 construct: the recombinant human catalytic domain of MMP-1
T4 sequence (P03956 100-269 limits assumed): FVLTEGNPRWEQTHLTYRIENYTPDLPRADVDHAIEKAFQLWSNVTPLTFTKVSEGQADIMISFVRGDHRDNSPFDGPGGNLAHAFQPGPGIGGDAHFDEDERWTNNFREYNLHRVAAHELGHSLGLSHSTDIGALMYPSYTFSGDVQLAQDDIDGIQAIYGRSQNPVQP
Description: In-Vitro Fluorescence Assay of MMP-1 Activity
A continuous assay was used in which the substrate is a synthetic peptide containing a fluorescent group (7-methoxycoumarin; Mca) that is quenched by energy transfer to a 2,4-dinitrophenyl group. See Knight, C. G. et al., FEBS Lett. (1992) 296: 263-266, incorporated herein by reference in its entirety. When the peptide was cleaved by MMP, a large increase in fluorescence was observed. The source of enzyme in the assay was the recombinant human catalytic domain of MMP-1. See Zhang, Y et al., Journal of Pharmacology and Experimental Therapeutics (JPET) (2004) 309:348-355, incorporated by reference in its entirety. The substrate used was Mca-PQGL-(3-[2,4-dinitrophenyl]-L-2,3-diaminopropionyl)-AR-OH (denoted as Wammp-5, custom synthesized by AnaSpec, Inc., San Jose, Calif.). The assay buffer consisted of 50 mM Hepes (pH 7.4), 100 mM NaCl, 5 mM CaCl2, and 0.005% Brij-35. Each well of black polystyrene 96-well plates contained a 200 μl reaction mixture consisting of assay buffer, purified MMP (final concentration of 25 ng/ml, prepared by diluting with the assay buffer), and varied concentrations of inhibitor (prepared by serially diluting a given inhibitor in DMSO in 96-well polypropylene plate). The plates were then incubated at 30° C. for 15 minutes. The enzymatic reactions were initiated by adding the substrate to a final concentration of 20 μM, and mixing 10 times with a pipette. The final DMSO concentration in the assay was 6.0%. The initial rate of the cleavage reaction was determined at 30° C. with a fluorescence plate reader (excitation filter of 330 nm and emission filter of 395 nm) immediately after substrate addition.
as §2

[4] = biological target: T5, recombinant human catalytic domain of MMP-14 (Homo sapiens, UniProt P50281); assay: biochemical
T5 construct: 177 amino acids corresponding to Tyr89-Gly265 of mature human enzyme; 20 kDa; purchased Chemicon International, Inc. CC1041
Description: as §1, §2
In-Vitro Fluorescence Assay of MMP-14 Activity

[5] = tested on: TNF-α Secretion in Raw Cells (Raw 264.7 cells); assay: Cell-based assay for inhibition of TNF-α secretion in Raw cells; details: read-out: TNF-α Secretion in Raw Cells IC50
Procedure: Cell-Based Assay for Inhibition of TNF-A Secretion in Raw Cells
(§3) The basic measurement of the assay is the percentage of inhibition of TNF-α secretion and the IC50 determination by a fitting with the model-39 of LSW data analysis tool.
Raw 264.7 cells (ATCC Cat No. TIB-71) are maintained in DMEM medium containing 10% of serum, P/S, and Glutamine. […] For testing compounds, cells are cultured to confluence and are seeded the day before the experiment in 24 well culture dishes at 0.5 to 1 million/ml/well. On the next morning, the medium from the overnight culture is replaced with the fresh growth medium. The compounds are added at various concentrations at the 0.2% of final DMSO concentrations (10 μl of a 20% DMSO solution containing testing compounds is added to each well). The cells are pre-incubated with compounds for 1 hour. LPS (Sigma, L2262) is added to cells at a final concentration of 100 ng/ml (10 μl of a […] LPS solution freshly diluted from a 1 mg/ml LPS stock solution in PBS is added to each well) and cells are further incubated for 4 hours at 37° C. One milliliter (1 ml) of the supernatant was collected, cells are spun down and the supernatants are frozen at −80° C. until use.
The TNF-α and other proinflammatory cytokines were detected by ELISA assay according to the manufacturer's instruction (Biosource International, Inc., Camarillo, Calif.) (For IL-1b measurement in Raw cells, one round of freeze and thaw of the cells was required.)

[6] = tested on: TNF-α Secretion in Human Whole Blood; assay: Human whole blood assay for LPS-induced TNF-α secretion; format: cell-based; details: fresh human blood, LPS 100 ng/ml, TNF-α by ELISA
Description: as §3

[7] = TACE FRET assay, catalytic domain of recombinant TACE, read-out: TACE IC50
[8] = Raw 264.7 cells, LPS 100 ng/ml, 4 hours, TNF-α by ELISA

Which IC50 [1] does the source give for `CC#CCOc1ccc(S(=O)(=O)NC(Cc2c[nH]c3ccc(OCc4ccccc4)cc23)C(=O)O)cc1` (racemic) [Example 20, 5-(benzyloxy)-N-{[4-(but-2-ynyloxy)phenyl]sulfonyl}tryptophan] here?
Its IC50 is 15.3 µM.

And the IC50 [2]?
The IC50 was 0.75 µM.

What about the IC50 (recombinant human MMP-2) of the same compound?
The IC50 was 7.85 µM.

How did the inhibition at 67 µM ([3]; read-out: MMP-1 Inhibition) turn out when `CC#CCOc1ccc(S(=O)(=O)NC(Cc2cn(Cc3ccc(OC)cc3)c3ccc(C)cc23)C(=O)O)cc1` (centres unmarked) [Example 47, N-{[4-(but-2-ynyloxy)phenyl]sulfonyl}-1-(4-methoxybenzyl)-5-methyltryptophan] was run?
Its inhibition at 67 µM is 30%.

And the IC50 (recombinant human MMP-2)?
The IC50 was 0.66 µM.

What about the IC50 [4] of the same compound?
Its IC50 is 11.6 µM.

How did the IC50 ([5]; Mus musculus, RAW264.7, 4 h) turn out when `CC#CCOc1ccc(S(=O)(=O)N[C@H](Cc2cn(Cc3ccc(OC)cc3)c3ccccc23)C(=O)O)cc1` [Example 35, N-{[4-(but-2-ynyloxy)phenyl]sulfonyl}-1-(4-methoxybenzyl)-D-tryptophan] was run?
Its IC50 is greater than 60 µM.

And the inhibition at 33 µM ([3]; read-out: MMP-1 Inhibition)?
The inhibition at 33 µM was 14%.

And the IC50 [2, 7]?
Its IC50 is 0.08 µM.

What about the IC50 [4] of the same compound?
The IC50 was 13 µM.

How did the IC50 [1] turn out when `CC#CCOc1ccc(S(=O)(=O)N[C@H](Cc2cn(Cc3ccc(F)cc3)c3ccccc23)C(=O)O)cc1` [Example 28, N-{[4-(but-2-ynyloxy)phenyl]sulfonyl}-1-(4-fluorobenzyl)-D-tryptophan] was run?
The IC50 was 17 µM.

And the IC50 [2, 7]?
The IC50 was 1.9 µM.

What about the IC50 (recombinant human MMP-2) of the same compound?
The IC50 was 3.97 µM.

Which IC50 ([5]; Mus musculus, RAW264.7, 4 h) does the source give for `CC#CCOc1ccc(S(=O)(=O)N[C@H](Cc2cn(Cc3ccccc3-c3ccccc3)c3ccccc23)C(=O)O)cc1` [Example 27, 1-(1,1′-biphenyl-2-ylmethyl)-N-{[4-(but-2-ynyloxy)phenyl]sulfonyl}-D-tryptophan] here?
Its IC50 is greater than 60 µM.

What about the IC50 [2, 7] of the same compound?
The IC50 was 0.97 µM.

With `CC#CCOc1ccc(S(=O)(=O)N[C@@H](Cc2c[nH]c3ccc(OC)cc23)C(=O)O)cc1` [Example 221, N-{[4-(but-2-ynyloxy)phenyl]sulfonyl}-5-methoxy-D(or L)-tryptophan] as the compound, how does the IC50 [5, 8] read?
The IC50 was 57 µM.

What about the IC50 [1] of the same compound?
The IC50 was 13.6 µM.

What about the “MMP-1 Inhibition” value ([3]; Conc. 83 μM) of the same compound?
Its value is 9%.

What about the IC50 [2, 7] of the same compound?
The IC50 was 0.14 µM.

What about the IC50 (recombinant human MMP-2) of the same compound?
Its IC50 is 1.27 µM.

And the IC50 [4]?
Its IC50 is 20.7 µM.

Which results are given for `CC#CCOc1ccc(S(=O)(=O)N[C@@H](Cc2c(C)n(Cc3ccc(F)cc3)c3ccc(OC)cc23)C(=O)O)cc1` [Example 199, N-{[4-(but-2-ynyloxy)phenyl]sulfonyl}-1-(4-fluorobenzyl)-5-methoxy-2-methyltryptophan]?
IC50 ([5]; Mus musculus, RAW264.7, 4 h): > 60 µM; IC50 [2]: 0.32 µM

With `CC#CCOc1ccc(S(=O)(=O)NC(Cc2c[nH]c3ccc(C)cc23)C(=O)O)cc1` (racemic) [Example 6, N-{[4-(but-2-ynyloxy)phenyl]sulfonyl}-5-methyltryptophan] as the compound, how does the IC50 [1] read?
Its IC50 is 6.87 µM.

And the IC50 [2]?
Its IC50 is 0.28 µM.

And the IC50 (recombinant human MMP-2)?
The IC50 was 1.16 µM.

What does the source list for `CC#CCOc1ccc(S(=O)(=O)N[C@@H](Cc2c[nH]c3ccc(OCc4ccccc4)cc23)C(=O)O)cc1` [Example 224, 5-(benzyloxy)-N-{[4-(but-2-ynyloxy)phenyl]sulfonyl}-L(or D)-tryptophan]?
IC50 [1]: 4.44 µM; MMP-1 Inhibition ([3]; Conc. 83 μM): 19%; IC50 (recombinant human MMP-2): 2.45 µM; IC50 [4]: 19.7 µM

For `CC#CCOc1ccc(S(=O)(=O)NC(Cc2c[nH]c3ccc(OC)cc23)C(=O)O)cc1` (racemic) [Example 4, N-{[4-(but-2-ynyloxy)phenyl]sulfonyl}-5-methoxytryptophan], which inhibition at 15 µM ([1]; read-out: MMP-13 Inhibition) is on record?
The inhibition at 15 µM was 50%.

And the inhibition at 1000 µM ([3]; read-out: MMP-1 Inhibition)?
Its inhibition at 1000 µM is 33%.

And the IC50 [2]?
Its IC50 is 0.36 µM.

And the IC50 (recombinant human MMP-2)?
Its IC50 is 7.84 µM.

What about the IC50 [4] of the same compound?
The IC50 was 22.7 µM.

How did the IC50 ([5]; Mus musculus, RAW264.7, 4 h) turn out when `CC#CCOc1ccc(S(=O)(=O)N[C@H](Cc2cn(CCCCOc3ccccc3)c3ccccc23)C(=O)O)cc1` [Example 24, N-{[4-(but-2-ynyloxy)phenyl]sulfonyl}-1-(4-phenoxybutyl)-D-tryptophan] was run?
The IC50 was greater than 60 µM.

What about the IC50 [2, 7] of the same compound?
The IC50 was 1.25 µM.

`CC#CCOc1ccc(S(=O)(=O)N[C@@H](Cc2c[nH]c3ccc(C)cc23)C(=O)O)cc1` [Example 218, N-{[4-(but-2-ynyloxy)phenyl]sulfonyl}-5-methyl-L(or D)-tryptophan] was tested. Which IC50 [5, 8] did it give?
The IC50 was 7.11 µM.

What about the IC50 [6] of the same compound?
The IC50 was greater than 50 µM.

And the IC50 [1]?
Its IC50 is 1.81 µM.

What about the “MMP-1 Inhibition” value ([3]; Conc. 160 μM) of the same compound?
The value was 30%.

What about the IC50 [2, 7] of the same compound?
The IC50 was 0.14 µM.

And the IC50 (recombinant human MMP-2)?
The IC50 was 0.27 µM.

What about the IC50 [4] of the same compound?
The IC50 was 6.82 µM.
